Test results as given in ChEMBL document CHEMBL4732209, “Indole scaffolds as a promising class of the aryl hydrocarbon receptor ligands” (Eur J Med Chem, 2021).

Experiments:
[1] = target: T1, Aryl hydrocarbon receptor (Homo sapiens, UniProt P35869); assay: Agonist activity at AHR in human HepG2 cells incubated for 4.5 hrs by Luciferase reporter assay; format: cell-based
T1 sequence (P35869 whole entry): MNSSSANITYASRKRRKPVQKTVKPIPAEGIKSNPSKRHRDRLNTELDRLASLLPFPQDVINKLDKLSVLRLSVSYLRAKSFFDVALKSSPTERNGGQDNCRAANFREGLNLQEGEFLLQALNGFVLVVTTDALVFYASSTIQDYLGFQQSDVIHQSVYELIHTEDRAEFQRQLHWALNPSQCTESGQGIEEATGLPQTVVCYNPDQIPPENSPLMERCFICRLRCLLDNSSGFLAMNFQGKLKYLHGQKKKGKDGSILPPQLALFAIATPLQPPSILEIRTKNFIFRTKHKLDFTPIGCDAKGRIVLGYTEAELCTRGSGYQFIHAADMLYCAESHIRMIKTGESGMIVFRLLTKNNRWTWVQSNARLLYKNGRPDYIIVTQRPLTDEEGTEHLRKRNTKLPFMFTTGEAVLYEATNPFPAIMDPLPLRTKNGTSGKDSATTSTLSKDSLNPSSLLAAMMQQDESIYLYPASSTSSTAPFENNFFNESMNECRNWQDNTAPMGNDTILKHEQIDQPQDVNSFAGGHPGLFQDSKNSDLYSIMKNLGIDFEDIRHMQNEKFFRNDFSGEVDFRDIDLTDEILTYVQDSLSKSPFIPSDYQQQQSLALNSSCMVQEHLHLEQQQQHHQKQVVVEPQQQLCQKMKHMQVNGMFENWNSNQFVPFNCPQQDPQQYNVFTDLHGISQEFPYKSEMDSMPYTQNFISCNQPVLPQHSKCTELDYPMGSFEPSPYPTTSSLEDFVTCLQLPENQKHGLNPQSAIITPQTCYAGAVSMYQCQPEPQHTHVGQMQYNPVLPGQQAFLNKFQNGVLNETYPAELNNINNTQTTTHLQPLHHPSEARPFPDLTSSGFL

[2] = target: T1, Aryl hydrocarbon receptor; assay: Agonist activity at AHR in human AZ-AHR stable HepG2 cells by Luciferase reporter assay
[3] = target: T1, Aryl hydrocarbon receptor; assay: Agonist activity at AHR in human MDA-MB-468 cells incubated for 24 hrs by Western blot analysis; format: cell-based

EC50 [1] [nM] | EC50 [2] [nM] | SMILES | EC50 [3] [nM]
2 | – | O=C(c1cccc(C(F)(F)F)n1)c1c[nH]c2ccccc12 | –
– | 1600 | OC(c1ccncc1)(c1cc2ccccc2[nH]1)c1cc2ccccc2[nH]1 | –
2 | – | N#Cc1cccc(C(=O)c2c[nH]c3ccccc23)n1 | –
– | – | Brc1c(Br)c(Br)c2c([nH]c3c(Br)c(Br)c(Br)c(Br)c32)c1Br | < 1000
– | – | Clc1c(Cl)c(Cl)c2c([nH]c3c(Cl)c(Cl)c(Cl)c(Cl)c32)c1Cl | < 1000
– | 1600 | CCOn1c(C(O)(c2ccncc2)c2cc3ccccc3[nH]2)cc2ccccc21 (stereo unspecified) | –
